Results published in US8263642B2, “Antimicrobial compounds and methods of use thereof” (Vanderbilt University, priority 2008, dated 2012).

Legend:
response regulator HssR = experiment: HssR dependence of XylE inducing activity, Newman; assay type: cell-based, Staphylococcus aureus; conditions: whether XylE inducing activity requires HssR
Description: With reference to Table 1, “Luminescence” refers to the raw luminescence value obtained in a luminomter. “Control (82.5 nm)” refers to the luminescence value obtained from heme at 82.5 nM as a positive control in the same plate as the experimental. “% lum” is the percentage of luminescence induced by the compound as compared to the heme control in the same plate. […] All of these assays are described in the application. […] “N/T” indicates the test was not performed. […]
S. aureus strains harboring the appropriate reporter construct were inoculated into 500 μl of TSB containing 10 μg/ml chloramphenicol in 1.5 ml tubes. Cultures were grown O/N at 37° C. with shaking. Bacteria were pelleted by centrifugation and spent medium was aspirated. The pellet was washed once with 500 μl of 20 mM potassium phosphate, pH 7.6, and resuspended in 150 μl of 100 mM potassium phosphate buffer, pH 8.0, 10% (v/v) acetone, 25 μg/ml lysostaphin. After 20 minute incubation at 37° C. and 5 minute incubation on ice, samples were centrifuged at 20,000 g for 30 minutes at 4° C. 1-10 μl of supernatant was added to a 96-well plate and 200 μl of 100 mM potassium phosphate, pH 8.0, 0.2 mM pyrocatechol was added to each well. Formation of 2-hydroxymuconic semialdehyde was tracked by measuring the absorbance at 375 nm every minute for 30 minutes on a Varian MP 50 microplate reader. Protein concentration in samples was determined by BCA (Pierce). One unit of specific activity of XylE in a sample is defined as the formation of 1 nmol of 2-hydroxymuconic semialdehyde per minute per milligram of cellular protein at 30° C. (Chien, Y., Manna, A. C., Projan, S. J., and Cheung, A. L. 1999, “SarA, a global regulator of virulence determinants in Staphylococcus aureus, binds to a conserved motif essential for sar-dependent gene regulation. J. Biol. Chem. 274, 37169-37176).

[1] = test system: S. aureus heme toxicity adaptation; experiment: Heme adaptation (resistance to heme-mediated toxicity), Newman; assay type: cell-based, Staphylococcus aureus; conditions: whether compound induces heme adaptation
Description: With reference to Table 1, “Luminescence” refers to the raw luminescence value obtained in a luminomter. “Control (82.5 nm)” refers to the luminescence value obtained from heme at 82.5 nM as a positive control in the same plate as the experimental. “% lum” is the percentage of luminescence induced by the compound as compared to the heme control in the same plate. […] All of these assays are described in the application. […] “N/T” indicates the test was not performed.
This secondary counter screen can involve testing the compounds of interest for their ability to increase the resistance of wildtype S. aureus to heme-mediated toxicity. Upon sensing heme, HssRS increases the expression of hrtAB, in turn increasing the resistance of S. aureus to heme mediated toxicity. By extension, additional molecules recognized by HssRS leading to hrtAB activation can result in a similar increase in resistance to heme mediated toxicity. For this assay, bacteria can be grown for 15 hours in the presence of compounds of interest (using concentrations determined in the XylE assay), followed by subculture into TSB containing 10 μM heme. Compounds that increase the resistance of S. aureus to heme-mediated toxicity can be selected for further studies. S. aureus strains unable to adapt to heme mediated toxicity (ΔhssR) can be included as a negative control. As a positive control, wildtype S. aureus can be exposed to subinhibitory concentrations of heme prior to subculture. The inclusion of this secondary counterscreen can, in some aspects, rule out compounds that non-specifically increase the expression of the XylE and Lux-based reporter genes.
S. aureus cultures were grown overnight (O/N ˜15 hrs) at 37° C. with shaking at 180 RPM in tryptic soy broth (TSB). Cultures were diluted 1:75 and inoculated into roundbottom 96-well plates in a final volume of 150 μl. Cultures were grown at 37° C. with aeration and bacterial growth was monitored by the increase in absorbance (O.D.600) over time. For the hemin adaptation assays, the medium was supplemented with different hemin concentrations prior to bacterial inoculation. The results represent the mean±S.D. from triplicate determinations and the asterisks denote statistically significant differences as determined by Student's t test (p<0.05).

COc1ccc(-c2cc(-c3ccc(OC)cc3O)n[nH]2)cc1
HssR Dep (response regulator HssR): +
Heme Adapt [1]: +

Cc1ccc(NS(=O)(=O)c2ccc3c(c2)Cc2cc(S(=O)(=O)Nc4ccc(C)cc4)ccc2-3)cc1 [drawing 74]
HssR Dep (response regulator HssR): +
Heme Adapt [1]: +

Oc1c(-c2cc(-c3ccco3)[nH]n2)ccc2ccccc12 [drawing 65]
HssR Dep (response regulator HssR): +
Heme Adapt [1]: +

O=C(N/N=C/c1ccc(-c2cccc(C(F)(F)F)c2)o1)C1COc2ccccc2O1 (stereo not shown) [drawing 49]
HssR Dep (response regulator HssR): +
Heme Adapt [1]: +

Cc1ccc(O)c(NC(=O)c2nn3c(c2Br)NC(c2ccco2)CC3C(F)(F)F)c1 (stereo not shown) [drawing 29]
HssR Dep (response regulator HssR): +
Heme Adapt [1]: +

CC(NC(=O)C1(c2ccccc2)CCCC1)C1COc2ccccc2O1 (stereo not shown) [drawing 45]
HssR Dep (response regulator HssR): +
Heme Adapt [1]: +

COc1ccccc1NC1=C/C(=N\S(=O)(=O)c2ccc(Br)cc2)c2ccccc2C1=O [drawing 81]
HssR Dep (response regulator HssR): +
Heme Adapt [1]: +

Oc1c(-c2cc(-c3ccco3)[nH]n2)ccc2ccccc12 [drawing 25]
HssR Dep (response regulator HssR): +
Heme Adapt [1]: +

COc1ccc(C(=O)Nc2sc(-c3ccccc3)cc2C(N)=O)cc1
HssR Dep (response regulator HssR): +
Heme Adapt [1]: +

CCCN1C(=O)/C(=C2/C(=O)N(CC(=O)Nc3ccc(Cl)cc3)c3ccccc32)SC1=S [drawing 67]
HssR Dep (response regulator HssR): +
Heme Adapt [1]: +

Fc1ccc(CNC(=S)Nc2ccc(Oc3ccccc3)cc2)cc1
HssR Dep (response regulator HssR): +
Heme Adapt [1]: +

CC(C)(C)c1ccc(O)c(NC(=S)NC(=O)c2cc3ccccc3o2)c1
HssR Dep (response regulator HssR): +
Heme Adapt [1]: +

CC(NC(=O)C1(c2ccccc2)CCCC1)C1COc2ccccc2O1 (stereo not shown) [drawing 26]
HssR Dep (response regulator HssR): +
Heme Adapt [1]: +

COc1ccc(Br)cc1C(=O)NC(=S)Nc1cc(C)c(C)cc1O [drawing 63]
HssR Dep (response regulator HssR): +
Heme Adapt [1]: +

O=C(N/N=C/c1ccc(-c2ccc(Br)cc2)o1)C1COc2ccccc2O1 (stereo not shown) [drawing 48]
HssR Dep (response regulator HssR): +
Heme Adapt [1]: +

Cc1cccc(C(=O)Nc2ccc(-c3nc4ccccc4o3)cc2)c1 [drawing 43]
HssR Dep (response regulator HssR): +
Heme Adapt [1]: +

COc1ccc(-c2cc(-c3ccc(C)cc3)[nH]n2)c(O)c1
HssR Dep (response regulator HssR): +
Heme Adapt [1]: +
